From BindingDB's records for doi:10.1016/j.bmcl.2007.11.068 (Johnson & Johnson Pharmaceutical Research and Development, 2008)

Assays:
[1] = target: T1, Alpha-1D adrenergic receptor (Homo sapiens, UniProt P25100)
T1 sequence (P25100 whole entry): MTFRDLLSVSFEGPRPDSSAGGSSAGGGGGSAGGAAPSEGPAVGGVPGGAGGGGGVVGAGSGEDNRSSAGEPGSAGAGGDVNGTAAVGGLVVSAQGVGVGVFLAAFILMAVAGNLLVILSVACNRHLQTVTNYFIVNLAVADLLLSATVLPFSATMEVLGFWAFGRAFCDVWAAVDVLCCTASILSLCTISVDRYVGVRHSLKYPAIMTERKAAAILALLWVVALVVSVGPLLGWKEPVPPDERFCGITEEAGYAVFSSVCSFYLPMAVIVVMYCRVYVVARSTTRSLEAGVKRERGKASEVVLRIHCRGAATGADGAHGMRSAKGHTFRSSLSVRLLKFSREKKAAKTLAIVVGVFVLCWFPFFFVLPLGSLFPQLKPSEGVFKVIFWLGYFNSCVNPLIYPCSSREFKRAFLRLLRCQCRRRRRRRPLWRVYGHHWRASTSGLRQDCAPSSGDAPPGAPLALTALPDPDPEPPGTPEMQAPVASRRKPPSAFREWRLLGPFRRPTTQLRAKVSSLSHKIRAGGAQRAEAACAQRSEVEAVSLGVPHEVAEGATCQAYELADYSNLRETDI

[2] = target: T2, Alpha-1B adrenergic receptor (Homo sapiens, UniProt P35368)
T2 sequence (P35368 whole entry): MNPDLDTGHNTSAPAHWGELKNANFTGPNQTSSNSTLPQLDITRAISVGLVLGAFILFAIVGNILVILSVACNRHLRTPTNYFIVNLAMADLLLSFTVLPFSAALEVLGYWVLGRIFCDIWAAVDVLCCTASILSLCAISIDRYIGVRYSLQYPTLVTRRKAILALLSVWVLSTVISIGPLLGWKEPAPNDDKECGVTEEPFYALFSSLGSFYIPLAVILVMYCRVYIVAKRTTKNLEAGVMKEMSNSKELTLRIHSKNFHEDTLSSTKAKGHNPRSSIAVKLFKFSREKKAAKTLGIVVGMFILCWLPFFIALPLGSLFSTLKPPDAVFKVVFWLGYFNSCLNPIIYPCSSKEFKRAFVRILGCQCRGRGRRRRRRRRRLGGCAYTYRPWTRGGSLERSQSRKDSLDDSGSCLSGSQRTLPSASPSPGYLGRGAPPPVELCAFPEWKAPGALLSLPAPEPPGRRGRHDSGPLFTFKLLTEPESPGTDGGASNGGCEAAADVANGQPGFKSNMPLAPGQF

Ki [1]: 0.2 nM
Ki [2]: 2 nM
SMILES: CCOc1ccccc1OCCNC(C)Cc1ccc(OC)c(S(N)(=O)=O)c1 (configuration not stated) [NSC_60147]
